Results on eleven compounds are retold here after ChEMBL document CHEMBL5244219, “Recent developments of quinolone-based derivatives and their activities against Escherichia coli” (Eur J Med Chem, 2018).

The test system of series [1] is Escherichia coli. Kind of series: Antibacterial activity against Escherichia coli DC2 assessed as bacterial growth inhibition by agar dilution method. It counts as functional.
Series [2] is described as follows: Protein binding in marmoset plasma. To be noted: read-out: PPB (converted). It counts as ADME, cell-free, Callithrix jacchus.
In series [3] the test system is Escherichia coli. Kind of series: Potency index, ratio of ceftazidime MIC to compound IC50 for antibacterial activity against Escherichia coli DC0. It counts as functional.
Series [4] relates to Escherichia coli. Kind of series: Antibacterial activity against Escherichia coli DC0 assessed as bacterial growth inhibition by agar dilution method. It counts as functional.
The test system of series [5] is Escherichia coli. Kind of series: Potency index, ratio of ceftazidime MIC to compound IC50 for antibacterial activity against Escherichia coli DC2. It counts as functional.
The nature of series [6]: Half life in marmoset at 3 mg/kg, iv. It counts as ADME, organism-based. The following applies: callitrichinae sp., in vivo.
The nature of series [7]: AUC in marmoset at 3 mg/kg, iv. It counts as ADME, organism-based. Further details: dose 3 mg/kg, route iv. The following applies: callitrichinae sp., in vivo.
The test system of series [8] is Escherichia coli. Kind of series: In vivo antibacterial activity against Escherichia coli infected in sc dosed CD-1 mouse assessed as bacterial growth inhibition. To be noted: read-out: PD50. It counts as functional.
Series [9] concerns Escherichia coli. Kind of series: In vivo antibacterial activity against Escherichia coli infected in po dosed CD-1 mouse assessed as bacterial growth inhibition. It counts as functional. To be noted: read-out: PD50.
Series [10] concerns Escherichia coli. Kind of series: Antibacterial activity against Escherichia coli assessed as bacterial growth inhibition. It counts as functional.
The subject of series [11] is Escherichia coli. Kind of series: Potency index, ratio of chloromycin MIC to compound IC50 for antibacterial activity against Escherichia coli ATCC 700603. It counts as functional.
In series [12] the test system is Escherichia coli. Kind of series: Potency index, ratio of ciprofloxacin MIC to compound IC50 for antibacterial activity against Escherichia coli ATCC 700603. It counts as functional.
The subject of series [13] is Escherichia coli. Kind of series: Potency index, ratio of norfloxacin MIC to compound IC50 for antibacterial activity against Escherichia coli ATCC 700603. It counts as functional.
Series [14] concerns Escherichia coli. Kind of series: Antibacterial activity against Escherichia coli ATCC 700603 assessed as bacterial growth inhibition by agar dilution method. It counts as functional.
The subject of series [15] is Escherichia coli. Kind of series: Potency index, ratio of clinafloxacin MIC to compound IC50 for antibacterial activity against Escherichia coli ATCC 700603. It counts as functional.
Series [16] concerns Escherichia coli. Kind of series: Antibacterial activity against Escherichia coli assessed as bacterial growth inhibition incubated for 18 hrs by twofold serial dilution assay. It counts as functional.
Series [17] relates to Escherichia coli. Kind of series: Antibacterial activity against Escherichia coli NIHJ JC-2 assessed as bacterial growth inhibition. It counts as functional.
The subject of series [18] is Escherichia coli. Kind of series: In vivo antibacterial activity against Escherichia coli NCTC 10419 infected in po dosed CF-mouse assessed as bacterial growth inhibition. It counts as functional, organism-based.
The test system of series [19] is Escherichia coli. Kind of series: Antibacterial activity against Escherichia coli NCTC 10419 assessed as bacterial growth inhibition. It counts as functional.
In series [20] the test system is Escherichia coli. Kind of series: Antibacterial activity against Escherichia coli assessed as bacterial growth inhibition by microdilution method. It counts as functional.
The test system of series [21] is Escherichia coli. Kind of series: Antibacterial activity against Escherichia coli 2010-29 assessed as bacterial growth inhibition measured after 24 hrs by agar dilution method. It counts as functional.
The subject of series [22] is Escherichia coli. Kind of series: Antibacterial activity against Escherichia coli TolC assessed as bacterial growth inhibition. It counts as functional.
For series [23], the system named is Escherichia coli. Kind of series: Antibacterial activity against Escherichia coli assessed as bacterial growth inhibition by agar dilution method. It counts as functional.
Series [24] concerns Escherichia coli. Kind of series: Antibacterial activity against Escherichia coli 2010-05 assessed as bacterial growth inhibition measured after 24 hrs by agar dilution method. It counts as functional.
Series [25] relates to Escherichia coli. Kind of series: In vivo antibacterial activity against Escherichia coli H560 infected in sc dosed CD-1 mouse assessed as bacterial growth inhibition. It counts as functional. To be noted: read-out: PD50.
Series [26] relates to Escherichia coli. Kind of series: Antibacterial activity against Escherichia coli H560 assessed as bacterial growth inhibition. It counts as functional.
Series [27] relates to Escherichia coli. Kind of series: In vivo antibacterial activity against Escherichia coli H560 infected in po dosed CD-1 mouse assessed as bacterial growth inhibition. It counts as functional. The following applies: read-out: PD50.
The test system of series [28] is Escherichia coli. Kind of series: Antibacterial activity against Escherichia coli NCDC 134 assessed as bacterial growth inhibition. It counts as functional.
Series [29] has as its system Escherichia coli. Kind of series: Antibacterial activity against Escherichia coli KC-14 infected in po dosed mouse assessed as bacterial growth inhibition. It counts as functional.
Series [30] has as its system Escherichia coli. Kind of series: Antibacterial activity against Escherichia coli DH52 assessed as bacterial growth inhibition. It counts as functional.
In series [31] the test system is Escherichia coli. Kind of series: Potency index, ratio of norfloxacin MIC to compound IC50 for antibacterial activity against Escherichia coli DH52. It counts as functional.
Series [32] deals with Escherichia coli. Kind of series: Potency index, ratio of ciprofloxacin MIC to compound IC50 for antibacterial activity against Escherichia coli JM109. It counts as functional.
In series [33] the test system is Escherichia coli. Kind of series: Potency index, ratio of norfloxacin MIC to compound IC50 for antibacterial activity against Escherichia coli JM109. It counts as functional.
Series [34] deals with Escherichia coli. Kind of series: Potency index, ratio of ciprofloxacin MIC to compound IC50 for antibacterial activity against Escherichia coli DH52. It counts as functional. To be noted: time 24 hrs.
Series [35] concerns Escherichia coli. Kind of series: Antibacterial activity against Escherichia coli JM109 assessed as bacterial growth inhibition. It counts as functional.
Series [36] relates to Escherichia coli. Kind of series: Antibacterial activity against Escherichia coli ATCC 25922 assessed as bacterial growth inhibition. It counts as functional.
Series [37] concerns Escherichia coli. Kind of series: Antibacterial activity against drug-sensitive Escherichia coli assessed as bacterial growth inhibition. It counts as functional.
For series [38], the system named is Escherichia coli. Kind of series: Antibacterial activity against Escherichia coli ATCC 25922 infected in iv dosed rat assessed as log reduction in bacterial count in lung homogenate at 5 mg/kg. It counts as functional.
In series [39] the test system is Escherichia coli. Kind of series: Antibacterial activity against Escherichia coli ATCC 25922 infected in iv dosed mouse assessed as bacterial growth inhibition. It counts as functional.
Series [40] deals with Escherichia coli. Kind of series: Antibacterial activity against Escherichia coli K-12 C600 assessed as bacterial growth inhibition. It counts as functional.
Series [41] deals with Escherichia coli. Kind of series: Antibacterial activity against Escherichia coli KC-14 assessed as bacterial growth inhibition. It counts as functional.
For series [42], the system named is Escherichia coli. Kind of series: Antibacterial activity against Escherichia coli assessed as zone of inhibition at 5 ug per disc. To be noted: read-out: DIZ. It counts as functional.
The subject of series [43] is Escherichia coli. Kind of series: Antibacterial activity against clinical isolate Escherichia coli assessed as bacterial growth inhibition incubated for 24 hrs by agar dilution method. It counts as functional.
The mark [44] stands for this setting: Escherichia coli, KC-14, po, read-out: ED50.

In brackets after ≈: the same amount, converted by molar mass. A value given as a limit tells only on which side of the number the result lay.

For the compound `CCn1cc(C(=O)NCC2=C(C(=O)O)N3C(=O)[C@@H](NC(=O)/C(=N\OC(C)(C)C(=O)O)c4csc(N)n4)C3SC2)c(=O)c2cc(O)c(O)cc21` (stereo in doubt), the MIC in series [1] and in series [4] was 0.008 µg/mL (≈ 0.0112 µM) each time. Moreover, the fraction unbound in series [2] is 0.008. Moreover, the Ratio in [3] and in series [5] was 8 in each case. Further, the half-life in series [6] is 3.47 h. Besides, in [7], the AUC came out at 238 µg·h/mL.

For `CCn1cc(C(=O)O)c(=O)c2cc(F)c(N3CCC4(CCN(C)C4)C3)cc21` (stereo not given), the ED50 in [8] stood at 8.4 mg/kg; in series [9], 3.4 mg/kg. Further, the MIC in series [10] was 0.006 µg/mL (≈ 0.0161 µM).

Take `Cc1nc(N2CCOCC2)c([N+](=O)[O-])n1CC(O)CNC1CCN(c2c(F)cc3c(=O)c(C(=O)O)cn(C4CC4)c3c2Cl)C1` (stereo not given): the Ratio in [11], in series [12], in series [13] and in series [15] was 2 throughout. Moreover, in series [14], the MIC worked out at 0.5 µg/mL (≈ 0.789 µM).

On to `O=C(O)c1cn(C2CC2)c2cc(N3CCNCC3)c(F)cc2c1=O` [CIPROFLOXACIN], for which the MIC in series [16] was no more than 0.015 µg/mL; in series [17], 0.0063 µg/mL (≈ 0.019 µM); in series [19], 0.0011 µg/mL (≈ 0.00332 µM); in series [20], no more than 0.03 µg/mL; in series [21], 64 µg/mL (≈ 193 µM); in series [22] it was 8.21 µg/mL (≈ 24.8 µM). Besides, the MIC is 64 µg/mL (≈ 193 µM) in [24], no more than 0.003 µg/mL in series [26], 0.025 µg/mL (≈ 0.0754 µM) in series [10] and 40 µg/mL (≈ 121 µM) in series [28]. In addition, the EC50 in series [18] turned out to be 1.25 mg/kg. Besides, in series [23], the MIC90 turned out to be 4 µg/mL (≈ 12.1 µM). Further, the ED50 in series [25] is 0.3 mg/kg; in [27] it was 1 mg/kg; in series [29] (setting [44]) it was 0.45 mg/kg.

Regarding `Cc1c(N2CCN(c3nc4ccccc4[nH]3)CC2)c(F)cc2c(=O)c(C(=O)O)cn(C3CC3)c12`, the MIC in series [30] and in [35] was 0.125 µg/mL (≈ 0.271 µM) in each case. Besides, the Ratio in series [31], in series [32], in series [33] and in series [34] was 2 each time.

As for `C[C@@H](O)[C@H]1C(=O)N2C(C(=O)O)=C(COC(=O)N3CCN(c4cc5c(cc4F)c(=O)c(C(=O)O)cn5C4CC4)CC3)S[C@H]12`, the MIC in [36] was no more than 0.06 µg/mL.

On to `O=C(O)c1cn(C2CC2)c2cc(N3CCN([C@@H]4O[C@H](CO)[C@H](O)[C@H](O)[C@H]4O)CC3)c(F)cc2c1=O`, for which the MIC in series [37] was no more than 0.03 µg/mL.

As for `CN1CCN(c2cc3c(cc2F)c(=O)c(C(=O)O)cn3-c2ccc(OP(=O)(O)O)cc2)CC1`, the “log(activity)” value in series [38] worked out at 2. Further, in [39], the ED50 was found to be 0.74 mg/kg.

Regarding `CC1COc2c(N3CCN(C)CC3)c(F)cc3c(=O)c(C(=O)O)cn1c23` (stereo not given) [OFLOXACIN], the MIC in series [40] turned out to be 0.2 µg/mL (≈ 0.553 µM); in series [41] it was 0.1 µg/mL (≈ 0.277 µM). In [42], the zone of inhibition at 5 µg/disc was 22 mm. In addition, the ED50 was determined as 0.55 mg/kg in [29] and 1.1 mg/kg in series [29] (setting [44]).

Turning to `C[C@@H](O)[C@H]1C(=O)N2C(C(=O)O)=C(COC(=O)N[C@H]3CCN(c4c(F)cc5c(=O)c(C(=O)O)cn(C6CC6)c5c4F)C3)S[C@H]12`, the MIC in series [36] was no more than 0.06 µg/mL.

Turning to `C[C@H]1COc2c(N3CCN(C)CC3)c(F)cc3c(=O)c(C(=O)O)cn1c23.C[C@H]1COc2c(N3CCN(C)CC3)c(F)cc3c(=O)c(C(=O)O)cn1c23.O` [LEVOFLOXACIN], the minimum inhibitory concentration (MIC) in series [21] and in [24] was 32 µg/mL in each case. Further, the MIC90 turned out to be 4 µg/mL in series [23] and 32 µg/mL in [43].
